Here are results for one compound from US20250270170A1, “2,3-DIMETHOXY-5-METHYL-1,4-BENZOQUINONE ALKYL ALCOHOL DERIVATIVE AND USE THEREOF” (BEIJING ANJIANXI BIO-MEDICAL TECHNOLOGY CO., LTD., priority 2021, published 2025).

Molecules are shown by their SMILES. Values joined by “and” are separate entries in the source; they are usually repeats but may differ in a detail not shown here. Equal values may be shown once. “Also recorded” adds a separate entry of the source.

What all share (format): in vivo, C57BL/6J mice
Data set [1] concerns cisplatin-induced acute kidney damage in mice. The data set is described as follows: Example 11: serum urea nitrogen (Bun) in cisplatin-induced acute kidney damage model. As for the experimental part: (§1) 42 male C57BL/6J mice (age: 6 to 8 weeks, body weight 18-20 g, certificate number: 11400700238365) were purchased from Si Pei Fu (Beijing) Biotechnology Co., Ltd., and raised in an SPF-grade animal room of the Institute of Materia Medica, Chinese Academy of Medical Sciences, at a temperature of 20 to 25° C., a relative humidity of 40% to 70%, and a cycle of 12 hours of light and 12 hours of dark. The animals had free access to water and food. After 3 days of normal feeding, mice with good physical conditions after the veterinary examination were selected for this assay. Before grouping, a marker was used to mark on the base of the animals' tail. After grouping, each animal was marked with an ear cutout (7 mice in each group).
(§2) Assay animals: 42 7-week-old male C57 mice were used for animal testing after an adaptive feeding.
(§3) Group 1: blank control group;
(§4) The preparation of the R01 formulation administration test solution was the same as that in Example 5: an appropriate amount of the R01 formulation was weighed according to the three dosages set in the assay, respectively, and an appropriate volume of 0.5% CMC-Na aqueous solution was added. The mixture was vortexed and sonicated until mixed evenly, to give the administration test solutions with concentrations of […], respectively, which were ready for use.
(§5) Animal testing period: 7 days (excluding adaptive feeding), hereinafter referred to as: D1-D7.
(§6) 1. The first group was a solvent control group: N=7, all mice were males (the same below); • a) 0.5% solution of sodium carboxymethyl cellulose was gavagely administered from D1 to D6 (twice a day for each animal, with an interval of 8 hours between the morning and the afternoon). • b) Physiological saline was intraperitoneally injected in one-time on D4. • c) On D7, blood was collected from the orbit for euthanasia (300 ul of serum was extracted), the left kidney was fixed in formaldehyde, and the right kidney was preserved in liquid nitrogen (WB study may be carried out).
(§7) 1) The concentrations of urea nitrogen and creatinine in peripheral blood serum were tested.
(§8) The body weight of the animals when being grouped for administration in each group was recorded. The body weight and the kidney weight at the end of the assay were also recorded, and the kidney coefficient was calculated. The creatinine and urea nitrogen values in the blood samples sent for testing were recorded. The kidneys were stained with HE and PAS, and the slides were scanned. A report was issued after the pathological analysis.
(§9) The assay data were calculated and processed statistically using Microsoft Office Excel 2007 software. Unless otherwise specified, the data were expressed as mean±standard error (Mean±SE), and t-test was used for comparison between two groups.

The nature of data set [2]: Example 11: body weight in cisplatin-induced acute kidney damage model. As to conditions: Amifostine group. As for the experimental part:
as §1, §2, §3, §4, §5, §6
(§10) 3) Each animal was weighed before euthanasia, and the weight was recorded. Two kidneys were weighed as soon as possible after euthanasia, and the weight was recorded. Then, the two kidneys were quickly fixed or cryopreserved, and the kidney coefficient of the mouse was calculated (kidney weight/mouse weight).
as §8, §9

For data set [3], the system named is cisplatin-induced acute kidney damage in mice. The data set is described as follows: Example 11: serum creatinine (Cre) in cisplatin-induced acute kidney damage model. As for the experimental part: as §1, §2, §3, §4, §5, §6, §7, §8, §9
Data set [4] has the same test system. The data set is described as follows: Example 11: kidney weight and kidney coefficient in cisplatin-induced acute kidney damage model. How it is done: as §1, §2, §3, §4, §5, §6, §10, §8, §9
For data set [5] the test system is unchanged. The data set is described as follows: Example 11: renal pathology (HE, PAS) and pathological scoring. As to conditions: cisplatin 10 mg/kg alone (model) or with amifostine 50 mg/kg i.p. half an hour before; trihydrate. How it is done: as §1, §2, §3, §4, §5
1. […]
The body weight of the animals when being grouped for administration in each group was recorded. The body weight and the kidney weight at the end of the assay were also recorded, and the kidney coefficient was calculated. The creatinine and urea nitrogen values in the blood samples sent for testing were recorded. […]

Where [6] appears, read: group mean, cisplatin model, Amifostine group.
[7] abbreviates: individual animals No. 1-7, cisplatin model, Amifostine group, trihydrate.

Turning to `NCCCNCCSP(=O)(O)O` [amifostine, Amifostine trihydrate, reference compound], the “serum urea nitrogen value” in data set [1] (cisplatin 10 mg/kg alone (vs blank, P<0.05) or with amifostine 50 mg/kg i.p. (P<0.01)) is “significantly lower than that of the model group”. In addition, the “Urea nitrogen (Bun) level after the assay, x (mean)” value in data set [1] (setting [6]) was determined as 8.1 mg/dL. Besides, the “Urea nitrogen (Bun) level after the assay” value in data set [1] (setting [7]) is 10.92 mg/dL and 8.76 mg/dL and 6.62 mg/dL and 7.23 mg/dL and 7.62 mg/dL and 8.78 mg/dL and 6.47 mg/dL. In addition, the “Body weight, Before x- after x” value in data set [2] (difference of group means, cisplatin model) is recorded as 4.1 g. Besides, the “Body weight before cisplatin modeling, Before x (mean)” value in data set [2] (group mean) amounted to 20.9 g. In addition, the “Body weight after the assay, After x (mean)” value in data set [2] (group mean, cisplatin model) turned out to be 16.8 g. Further, in data set [2] (individual animals No. 1-7, trihydrate), the “Body weight before cisplatin modeling” value is 20.2 g and 20.6 g (2×) and 20.4 g and 20.5 g and 21.8 g and 22.4 g. The “Body weight after the assay” value in data set [2] (individual animals No. 1-7, cisplatin model, trihydrate) was 18 g and 16.7 g and 16.8 g and 17.1 g and 16.3 g and 15.8 g and 17.2 g. The serum creatinine value entry in data set [3] (cisplatin 10 mg/kg alone (vs blank, P<0.01) or with amifostine 50 mg/kg i.p. / R01 6, 18, 36 mg/kg bid) is on record as “equivalent to that of the blank control group”. Moreover, the “Serum creatinine (Cre) level after the assay, x (mean)” value in data set [3] (setting [6]) is 16.1 mg/dL. Further, the “Serum creatinine (Cre) level after the assay” value in data set [3] (setting [7]) was 9 mg/dl and 19 mg/dl and 14 mg/dl and 18 mg/dl (3×) and 17 mg/dl. Moreover, in data set [4] (setting [6]), the “Kidney coefficient (kidney weight/body weight), x (mean)” value came to 0.014 and the “Kidney weight after the assay, x (mean)” value came to 0.224 g. Besides, in data set [4] (setting [7]), the “Kidney coefficient (kidney weight/body weight)” value was 0.014 (3×) and 0.015 (2×) and 0.013 (2×); the “Kidney weight after the assay” value is 0.223 g and 0.249 g and 0.202 g and 0.227 g and 0.220 g and 0.205 g and 0.241 g. In data set [4] (with cisplatin 10 mg/kg, amifostine 50 mg/kg i.p., R01 6, 18, 36 mg/kg bid), the “Kidney coefficient (kidney weight/body weight)” value is “equivalent to that of the blank control group”. The “pathological damage of kidneys” value in data set [5] was “slight renal tubular damage and blurred renal tubular epithelial edges; also recorded: significantly reduced”.
